Data taken from BindingDB's records for doi:10.1021/jm00058a003 (Upjohn Laboratories, 1993).
pKi: −log10 of the molar value.

What follows are compounds tested against 5-HT1A receptor (Bos taurus) (assay: In vitro binding affinity towards [3H]8-OH-DPAT-labeled 5-hydroxytryptamine 1A receptor sites in bovine hippocampus.).

| Structure (SMILES) | pKi |
| --- | --- |
| C=CCN[C@@H]1CCc2ccccc2[C@@H]1CC=C [Allyl-(1-allyl-1,2,3,4-tetrahydro-naphthalen-2-yl)-amine] | 6.82 |
| C=CC[C@H]1c2c(cccc2OC)CC[C@H]1NCC1CC1 [(1-Allyl-8-methoxy-1,2,3,4-tetrahydro-naphthalen-2-yl)-cyclopropylmethyl-amine] | 8.54 |
| C=CC[C@H]1c2c(O)cccc2CC[C@H]1NCCC [8-Allyl-7-propylamino-5,6,7,8-tetrahydro-naphthalen-1-ol] | 9.30 |
| C=CC[C@H]1c2c(cccc2OC)CC[C@H]1NCCC [(1-Allyl-8-methoxy-1,2,3,4-tetrahydro-naphthalen-2-yl)-propyl-amine] | 8.74 |
| C=CCN[C@@H]1CCc2cccc(OC)c2[C@H]1CC1CC1 (relative stereo) [(trans)-Allyl-(1-cyclopropylmethyl-8-methoxy-1,2,3,4-tetrahydro-naphthalen-2-yl)-amine] | 7.82 |
| C=CCN[C@@H]1CCc2cccc(O)c2[C@@H]1CC=C [8-Allyl-7-allylamino-5,6,7,8-tetrahydro-naphthalen-1-ol] | 9.00 |
| C=CC[C@H]1c2ccccc2CC[C@H]1NCCC [(1-Allyl-1,2,3,4-tetrahydro-naphthalen-2-yl)-propyl-amine] | 6.76 |
| C=CCN[C@@H]1CCc2ccccc2[C@H]1CC=C (relative stereo) [(trans)-Allyl-(1-allyl-1,2,3,4-tetrahydro-naphthalen-2-yl)-amine] | < 6.00 |
| C=CCN[C@@H]1CCc2cccc(OC)c2[C@@H]1CC1CC1 [Allyl-(1-cyclopropylmethyl-8-methoxy-1,2,3,4-tetrahydro-naphthalen-2-yl)-amine] | 8.03 |
| CCCN[C@@H]1CCc2cccc(OC)c2[C@H]1CC1CC1 (relative stereo) [(trans)-(1-Cyclopropylmethyl-8-methoxy-1,2,3,4-tetrahydro-naphthalen-2-yl)-propyl-amine] | 8.03 |
| C=CC[C@@H]1c2ccccc2CC[C@H]1NCCC (relative stereo) [(trans)-(1-Allyl-1,2,3,4-tetrahydro-naphthalen-2-yl)-propyl-amine] | < 6.00 |
| CCCN[C@@H]1CCc2cccc(OC)c2[C@@H]1CO [(8-Methoxy-2-propylamino-1,2,3,4-tetrahydro-naphthalen-1-yl)-methanol] | 8.27 |
| CCCN(C)[C@@H]1CCc2cccc(OC)c2[C@@H]1CO [[8-Methoxy-2-(methyl-propyl-amino)-1,2,3,4-tetrahydro-naphthalen-1-yl]-methanol] | 8.30 |

Now from value to compound:

| pKi | Structure (SMILES) |
| --- | --- |
| 7.72 | C=CC[C@@H]1c2c(cccc2OC)CC[C@H]1NCCC (relative stereo) [(trans)-(1-Allyl-8-methoxy-1,2,3,4-tetrahydro-naphthalen-2-yl)-propyl-amine] |
| < 6.00 | C=CC[C@H]1c2cccc(OC)c2CC[C@H]1NCCC [(1-Allyl-5-methoxy-1,2,3,4-tetrahydro-naphthalen-2-yl)-propyl-amine] |
| 8.20 | C=CC[C@H]1c2c(cccc2OC)CC[C@H]1N(CCC)CCC [(1-Allyl-8-methoxy-1,2,3,4-tetrahydro-naphthalen-2-yl)-dipropyl-amine] |
| 7.96 | CCCN[C@@H]1CCc2cccc(OC)c2[C@@H]1CCC [(8-Methoxy-1-propyl-1,2,3,4-tetrahydro-naphthalen-2-yl)-propyl-amine] |
| 7.82 | CCCN[C@@H]1CCc2cccc(OC)c2[C@@H]1CC1CC1 [(1-Cyclopropylmethyl-8-methoxy-1,2,3,4-tetrahydro-naphthalen-2-yl)-propyl-amine] |
| < 6.00 | C=CC[C@@H]1c2cccc(OC)c2CC[C@H]1NCCC (relative stereo) [(trans)-(1-Allyl-5-methoxy-1,2,3,4-tetrahydro-naphthalen-2-yl)-propyl-amine] |
| 8.39 | C=CC[C@@H]1c2c(cccc2OC)CC[C@H]1NCC1CC1 (relative stereo) [(trans)-(1-Allyl-8-methoxy-1,2,3,4-tetrahydro-naphthalen-2-yl)-cyclopropylmethyl-amine] |
